Measurements as given in patent US20060067886A1, “Gastrin receptor-avid peptide conjugates” (priority 1997, published 2006).

Molecular target: T1, GRP receptors on Swiss 3T3 cells (Mus musculus, UniProt P21729)
T1 construct: endogenous in cells; host or cells: Swiss 3T3 mouse fibroblasts (whole cells)
Experiment: Competitive cell binding vs 125I-Tyr4-BBN, Swiss 3T3 cells
Description: The binding affinities of the synthetic BBN derivatives were assessed for GRP receptors on Swiss 3T3 cells and, in some cases, on a variety of human cancer cell lines, that express GRP receptors. […] The cell binding assay methods used to measure the IC50's is standard and used techniques previously reported [Jensen et al., 1993; Cai et al., 1994; Cai et al., 1992]. The methods used for determining IC50's for all GRP receptor binding compounds on all cell lines was similar. The specific method used to measure IC50's on Swiss 3T3 cells is briefly described as follows:
(§1) Swiss 3T3 mouse fibroblasts are grown to confluence in 48 well microtiter plates. […] The growth media was removed, the cells were washed twice with incubation media, and incubation media was returned to the cells. ^125I-Tyr4-BBN (0.01 uCi) was added to each well in the presence of increasing concentrations of the appropriate competitive peptide. Typical concentrations of displacing peptide ranged from 10-12 to 10-5 moles of displacing ligand per well. The cells were incubated at 37° C. for forty minutes in a 95% […]/5% CO2 humidified environment. At forty minutes post initiation of the incubation, the medium was discarded, and the cells were washed twice with cold incubation media. The cells were harvested from the wells following incubation in a trypsin/EDTA solution for five minutes at 37° C. Subsequently, the radioactivity, per well, was determined and the maximum % total uptake of the radiolabeled peptide was determined and normalized to 100%.
The binding affinities of the synthetic BBN derivatives were assessed for GRP receptors on Swiss 3T3 cells, PC-3 cells and CF PAC-1 cells. The IC50's of each of derivative were determined relative to (i.e., in competition with) ^125I-Tyr^4-BBN. The cell binding assay methods used to measure the IC50's is standard and was used by techniques previously reported [Jensen et al., 1993; Cai et al., 1992; Cai et al., 1994]. The methods used for determining IC50's with all BBN analogue binding to GRP receptors present on all three cell lines were similar. The specific method used to measure IC50's on Swiss 3T3 cells, is briefly described as follows:
as §1, with “microliter” for “microtiter”, “^125I-Tyr^4-BBN” for “^125I-Tyr4-BBN”, “μCi)” for “uCi)”, “10^−12” for “10-12”, “10^−5” for “10-5”, “100%. A similar procedure was used in performing cell binding assays with both the PC-3 and CFa-PAC-1 human cancer cell lines.” for “100%.”

T1 sequence (P21729 whole entry): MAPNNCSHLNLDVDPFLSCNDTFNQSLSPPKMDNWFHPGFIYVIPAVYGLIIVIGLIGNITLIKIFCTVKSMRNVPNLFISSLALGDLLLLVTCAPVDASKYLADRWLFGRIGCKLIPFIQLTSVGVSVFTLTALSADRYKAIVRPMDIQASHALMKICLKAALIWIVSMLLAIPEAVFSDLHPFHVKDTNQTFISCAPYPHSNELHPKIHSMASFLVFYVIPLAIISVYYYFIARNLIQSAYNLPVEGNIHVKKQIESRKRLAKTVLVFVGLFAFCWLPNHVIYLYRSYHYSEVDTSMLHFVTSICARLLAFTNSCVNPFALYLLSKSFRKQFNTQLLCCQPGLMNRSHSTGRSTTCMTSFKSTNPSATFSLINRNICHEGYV

Q: With `CSCC[C@H](NC(=O)[C@H](CC(C)C)NC(=O)[C@H](Cc1c[nH]cn1)NC(=O)CNC(=O)[C@@H](NC(=O)[C@H](C)NC(=O)[C@H](Cc1c[nH]c2ccccc12)NC(=O)[C@H](CCC(N)=O)NC(=O)CCNC(=O)COC1CSCCCSCCCSCCCSC1)C(C)C)C(N)=O` [BBN-46] as the compound, how does the IC50 read?
A: The IC50 was 2.34 ± 0.53 nM.

Q: Which IC50 does the source give for `CSCC[C@H](NC(=O)[C@H](CC(C)C)NC(=O)[C@H](Cc1c[nH]cn1)NC(=O)CNC(=O)[C@@H](NC(=O)[C@H](C)NC(=O)[C@H](Cc1c[nH]c2ccccc12)NC(=O)[C@H](CCC(N)=O)NC(=O)CCNC(=O)COC1CSCCCSCCCSCCCSC1)C(C)C)C(N)=O` [RhCl2BBN-46] here?
A: The IC50 was 3.38 ± 0.69 nM.
